In PubChem BioAssay (NCI):
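Briefly, cells in 96-well plates were exposed to five compound concentrations for 48 h, and endpoints were estimated by linear interpolation. Definition used: TGI = concentration required for complete inhibition of growth.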

How the values were obtained:
Assay in all cases: NCI anticancer screen, dose series, 48 h
[1] = tested on: 786-0 renal
[2] = tested on: A498 renal
[3] = tested on: A549 NSCLC
[4] = tested on: ACHN renal
[5] = tested on: CAKI-1 renal
[6] = tested on: CCRF-CEM leukemia
[7] = tested on: COLO 205 colon
[8] = tested on: DLD-1 colon
[9] = tested on: DMS 114 small cell lung
[10] = tested on: DMS 273 small cell lung
[11] = tested on: EKVX NSCLC
[12] = tested on: HCC-2998 colon
[13] = tested on: HCT-116 colon
[14] = tested on: HCT-15 colon
[15] = tested on: HL-60(TB) leukemia
[16] = tested on: HOP-18 NSCLC
[17] = tested on: HOP-62 NSCLC
[18] = tested on: HOP-92 NSCLC
[19] = tested on: HT29 colon
[20] = tested on: IGROV1 ovarian
[21] = tested on: K-562 leukemia
[22] = tested on: KM12 colon
[23] = tested on: KM20L2 colon
[24] = tested on: LOX IMVI melanoma
[25] = tested on: LXFL 529 NSCLC
[26] = tested on: M14 melanoma
[27] = tested on: M19-MEL melanoma
[28] = tested on: MALME-3M melanoma
[29] = tested on: MOLT-4 leukemia
[30] = tested on: NCI-H226 lung
[31] = tested on: NCI-H23 lung
[32] = tested on: NCI-H460 lung
[33] = tested on: NCI-H522 lung
[34] = tested on: OVCAR-3 ovarian
[35] = tested on: OVCAR-5 ovarian
[36] = tested on: OVCAR-8 ovarian
[37] = tested on: RPMI-8226 leukemia
[38] = tested on: RXF 393 renal
[39] = tested on: SF-268 CNS
[40] = tested on: SF-295 CNS
[41] = tested on: SF-539 CNS
[42] = tested on: SK-MEL-2 melanoma
[43] = tested on: SK-MEL-28 melanoma
[44] = tested on: SK-MEL-5 melanoma
[45] = tested on: SK-OV-3 ovarian
[46] = tested on: SN12C renal
[47] = tested on: SNB-19 CNS
[48] = tested on: SNB-75 CNS
[49] = tested on: SNB-78 CNS
[50] = tested on: SR leukemia
[51] = tested on: SW-620 colon
[52] = tested on: TK-10 renal
[53] = tested on: U251 CNS
[54] = tested on: UACC-257 melanoma
[55] = tested on: UACC-62 melanoma
[56] = tested on: UO-31 renal
[57] = tested on: XF 498 CNS
[58] = tested on: OVCAR-4 ovarian
[59] = tested on: RXF-631 renal

For `CCOC/N=C(/N)NC#N`, the TGI [1] was 56.2 µM, the TGI [2] was greater than 100 µM and the TGI [3] was greater than 100 µM. It also gave a TGI [4] greater than 100 µM, a TGI [5] greater than 100 µM and a TGI [6] greater than 100 µM. For the same compound, the TGI [7] was greater than 100 µM, the TGI [8] was greater than 100 µM and the TGI [9] was greater than 100 µM. It also gave a TGI [10] greater than 100 µM, a TGI [11] greater than 100 µM and a TGI [12] greater than 100 µM. For the same compound, the TGI [13] was greater than 100 µM, the TGI [14] was 45 µM and the TGI [15] was greater than 100 µM. It also gave a TGI [16] greater than 100 µM, a TGI [17] greater than 100 µM and a TGI [18] greater than 100 µM. For the same compound, the TGI [19] was greater than 100 µM, the TGI [20] was greater than 100 µM and the TGI [21] was greater than 100 µM. The TGI [22] was greater than 100 µM, the TGI [23] was greater than 100 µM and the TGI [24] was 27.1 µM. For the same compound, the TGI [25] was greater than 100 µM, the TGI [26] was greater than 100 µM and the TGI [27] was greater than 100 µM. It also gave a TGI [28] greater than 100 µM, a TGI [29] greater than 100 µM and a TGI [30] greater than 100 µM. It also gave a TGI [31] greater than 100 µM, a TGI [32] greater than 100 µM and a TGI [33] greater than 100 µM. For the same compound, the TGI [34] was greater than 100 µM, the TGI [35] was greater than 100 µM and the TGI [36] was greater than 100 µM. The TGI [37] was greater than 100 µM, the TGI [38] was greater than 100 µM and the TGI [39] was greater than 100 µM. It also gave a TGI [40] greater than 100 µM, a TGI [41] greater than 100 µM and a TGI [42] greater than 100 µM. For the same compound, the TGI [43] was greater than 100 µM, the TGI [44] was greater than 100 µM and the TGI [45] was greater than 100 µM. For the same compound, the TGI [46] was greater than 100 µM, the TGI [47] was greater than 100 µM and the TGI [48] was greater than 100 µM. For the same compound, the TGI [49] was greater than 100 µM, the TGI [50] was greater than 100 µM and the TGI [51] was 35.3 µM. It also gave a TGI [52] greater than 100 µM, a TGI [53] greater than 100 µM and a TGI [54] greater than 100 µM. It also gave a TGI [55] greater than 100 µM, a TGI [56] greater than 100 µM and a TGI [57] greater than 100 µM.

`CC1=C(C(=O)Nc2c(C)cccc2C)C(c2ccc3c(c2)OCO3)C(C(=O)Nc2c(C)cccc2C)=C(C)N1` was tested, and the TGI [1] was 28.2 µM, the TGI [3] was 59 µM and the TGI [4] was 35.2 µM. For the same compound, the TGI [5] was 59 µM, the TGI [6] was 41.9 µM and the TGI [7] was 47.1 µM. It also gave a TGI [8] of 86.8 µM, a TGI [9] of 38.1 µM and a TGI [11] of 53.3 µM. For the same compound, the TGI [12] was 32.3 µM, the TGI [13] was 27.3 µM and the TGI [15] was 56.1 µM. For the same compound, the TGI [16] was 48.2 µM, the TGI [17] was 44 µM and the TGI [19] was 30.2 µM. For the same compound, the TGI [20] was 28.5 µM, the TGI [21] was 73 µM and the TGI [22] was 29.1 µM. The TGI [23] was 29 µM, the TGI [24] was 28.1 µM and the TGI [25] was 43.9 µM. It also gave a TGI [26] of 33.9 µM, a TGI [28] of 45.7 µM and a TGI [29] of 61.5 µM. It also gave a TGI [30] of 32.3 µM, a TGI [31] of 29.8 µM and a TGI [32] of 39.9 µM. It also gave a TGI [33] of 31.7 µM, a TGI [34] of 98.6 µM and a TGI [58] of 77.3 µM. For the same compound, the TGI [35] was 33.7 µM, the TGI [36] was 44.2 µM and the TGI [38] was 33.9 µM. It also gave a TGI [59] of 42.3 µM, a TGI [39] of 48.5 µM and a TGI [40] of 32.7 µM. It also gave a TGI [41] of 37.7 µM, a TGI [43] of 46 µM and a TGI [45] greater than 100 µM. For the same compound, the TGI [46] was 32.7 µM, the TGI [47] was 32 µM and the TGI [48] was 63.1 µM. For the same compound, the TGI [49] was 78.8 µM, the TGI [50] was 90.9 µM and the TGI [51] was 36.5 µM. It also gave a TGI [52] of 62.1 µM, a TGI [53] of 29.1 µM and a TGI [54] of 32.3 µM. The TGI [55] was 10.9 µM and the TGI [56] was 30.6 µM.
